{"source": "patent US10471060B2", "about": "“Amino pyrimidine compounds useful as SSAO inhibitors” (Eli Lilly and Company, priority 2017, dated 2019)", "key": {"SSAO": {"tested_on": "SSAO", "test": "SSAO Target Engagement: residual SSAO activity in rat plasma and liver after dosing", "assay_type": "in vivo", "details": "for SSAO Activity (%) Liver 24 hours / SSAO Activity (%) Plasma 2 hours / SSAO Activity (%) Plasma 24 hours: mean ± SEM, n = 6", "procedure": "The SSAO activity in rat plasma and liver tissues are measured using the MAO-Glo™ assay kit from Promega (V1402). The residual SSAO activity in rats after compound treatment is estimated by measuring the total amine oxidase activity in plasma or liver lysates that are insensitive to the presence of the MAO inhibitor Clogyline and Pargyline. Rats are administered the compound of Example 1 at the doses of 15, 3, 0.6, 0.12, 0.025, 0.005 mg/kg. The control group is administered with the same volume (2 ml/kg) of the dosing vehicle (hydroxyethyl cellulose 1% w/v, 0.25% Tween 80). Plasma and liver at 2 or 24 hrs post compound treatment are harvested and stored at −78° C. until analysis. Tissue lysates are prepared by homogenization in a lysis buffer (20 mM HEPES, pH 7.4, 150 mM NaCl, 1 mM EDTA, 1 mM EGTA, 1% Triton X-100 and 1× Roche Complete protease inhibitor tablet). Tissue particles are removed by centrifugation at 12,000 rpm at 4° C. for 30 min. 40 μl of plasma or liver lysates is incubated with Clogyline (10 μM) and Pargyline (10 μM) for 20 min. at room temperature before the addition of the luminogenic substrate (50 μM) for 60 min. The product generated is quantified according to the manufacture's procedure. The fraction of activity that is insensitive to the presence of the MAO inhibitors is used as the surrogate for the residual SSAO activity. The compound of Example 1 is evaluated in the protocol essentially as described above administered at various doses."}, "recombinant hSSAO": {"molecular_target": "T1, recombinant hSSAO (Homo sapiens, UniProt Q16853)", "T1 sequence (Q16853 1-763)": "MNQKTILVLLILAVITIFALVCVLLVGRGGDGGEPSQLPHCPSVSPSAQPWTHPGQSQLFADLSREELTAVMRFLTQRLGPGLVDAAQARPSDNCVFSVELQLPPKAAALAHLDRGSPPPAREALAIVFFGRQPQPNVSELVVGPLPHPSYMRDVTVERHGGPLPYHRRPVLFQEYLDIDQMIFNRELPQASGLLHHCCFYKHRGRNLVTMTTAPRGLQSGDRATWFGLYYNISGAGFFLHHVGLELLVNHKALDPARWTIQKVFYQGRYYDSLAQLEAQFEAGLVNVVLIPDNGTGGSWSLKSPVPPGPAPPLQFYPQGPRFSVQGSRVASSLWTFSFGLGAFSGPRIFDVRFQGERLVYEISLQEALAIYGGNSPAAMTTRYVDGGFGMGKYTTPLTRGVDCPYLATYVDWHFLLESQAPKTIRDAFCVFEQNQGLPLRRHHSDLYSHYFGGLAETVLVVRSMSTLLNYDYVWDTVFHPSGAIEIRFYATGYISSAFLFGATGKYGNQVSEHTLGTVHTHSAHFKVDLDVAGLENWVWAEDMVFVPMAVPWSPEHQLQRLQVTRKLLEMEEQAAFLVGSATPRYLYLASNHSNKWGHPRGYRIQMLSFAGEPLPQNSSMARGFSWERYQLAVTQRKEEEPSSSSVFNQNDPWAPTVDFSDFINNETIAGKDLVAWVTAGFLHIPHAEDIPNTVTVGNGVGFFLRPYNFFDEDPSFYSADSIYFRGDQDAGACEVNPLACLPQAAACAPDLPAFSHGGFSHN", "test": "SSAO/VAP-1 in vitro amine oxidase activity, MAO-Glo assay", "assay_type": "biochemical", "details": "mean±standard deviation, n=5; substrate 10 μM, pH 7.4; read-out: hSSAO inhibition IC50", "procedure": "Amine oxidase activity of recombinant hSSAO, hMAOa, and hMAOb isoforms are measured using the MAO-Glo™ assay kit from Promega (V1402). Test compounds (with DMSO as vehicle, 0.5% v/v for SSAO) and the enzyme are incubated for 10 mins at room temperature before the addition of the luminogenic substrate. The substrate concentration is 10 μM for human recombinant SSAO. The assays are conducted in a pH 7.4 buffer (50 mM HEPES, 120 mM NaCl, 5 mM KCl, 2 mM CaCl2, 1.4 mM MgCl2, 0.001% Tween-20) in a well-plate. Oxidation of the substrate is conducted for 2 hrs before the addition of detecting reagent according the manufacture's protocol. The IC50 value of the tested compounds is calculated by fitting the dose response curve using a 4-parameter non-linear regression routine."}}, "data": [{"smiles": "CN1CCC2(CCN(c3ncc(OC/C(=C/F)CN)cn3)CC2)C1=O.Cl.Cl", "note": "[Example 1, 8-[5-[(E)-2-(Aminomethyl)-3-fluoro-allyloxy]pyrimidin-2-yl]-2-methyl-2,8-diazaspiro[4.5]decan-1-one Dihydrochloride]", "values": [{"measurement": "SSAO Activity (%) Liver 24 hours", "setting": "SSAO; dose 0.005 mg/kg", "result": "79 ± 13", "unit": "%"}, {"measurement": "SSAO Activity (%) Plasma 2 hours", "setting": "SSAO; dose 0.005 mg/kg", "result": "76 ± 3", "unit": "%"}, {"measurement": "SSAO Activity (%) Plasma 24 hours", "setting": "SSAO; dose 0.005 mg/kg", "result": "81 ± 4", "unit": "%"}, {"measurement": "SSAO Activity (%) Liver 24 hours", "setting": "SSAO; dose 0.025 mg/kg", "result": "59 ± 14", "unit": "%"}, {"measurement": "SSAO Activity (%) Plasma 2 hours", "setting": "SSAO; dose 0.025 mg/kg", "result": "35 ± 4", "unit": "%"}, {"measurement": "SSAO Activity (%) Plasma 24 hours", "setting": "SSAO; dose 0.025 mg/kg", "result": "67 ± 10", "unit": "%"}, {"measurement": "SSAO Activity (%) Liver 24 hours", "setting": "SSAO; dose 0.12 mg/kg", "result": "28 ± 5", "unit": "%"}, {"measurement": "SSAO Activity (%) Plasma 2 hours", "setting": "SSAO; dose 0.12 mg/kg", "result": "17 ± 1", "unit": "%"}, {"measurement": "SSAO Activity (%) Plasma 24 hours", "setting": "SSAO; dose 0.12 mg/kg", "result": "39 ± 4", "unit": "%"}, {"measurement": "SSAO Activity (%) Liver 24 hours", "setting": "SSAO; dose 0.6 mg/kg", "result": "24 ± 6", "unit": "%"}, {"measurement": "SSAO Activity (%) Plasma 2 hours", "setting": "SSAO; dose 0.6 mg/kg", "result": "13.4 ± 2.4", "unit": "%"}, {"measurement": "SSAO Activity (%) Plasma 24 hours", "setting": "SSAO; dose 0.6 mg/kg", "result": "31 ± 3", "unit": "%"}, {"measurement": "SSAO Activity (%) Liver 24 hours", "setting": "SSAO; dose 3 mg/kg", "result": "6 ± 4", "unit": "%"}, {"measurement": "SSAO Activity (%) Plasma 2 hours", "setting": "SSAO; dose 3 mg/kg", "result": "5.9 ± 1.6", "unit": "%"}, {"measurement": "SSAO Activity (%) Plasma 24 hours", "setting": "SSAO; dose 3 mg/kg", "result": "19 ± 2", "unit": "%"}, {"measurement": "SSAO Activity (%) Liver 24 hours", "setting": "SSAO; dose 15 mg/kg", "result": "−0.63 ± 1.1", "unit": "%"}, {"measurement": "SSAO Activity (%) Plasma 2 hours", "setting": "SSAO; dose 15 mg/kg", "result": "3.1 ± 0.9", "unit": "%"}, {"measurement": "SSAO Activity (%) Plasma 24 hours", "setting": "SSAO; dose 15 mg/kg", "result": "14 ± 1", "unit": "%"}, {"measurement": "inhibition of SSAO activity in rat plasma and liver tissue (in words)", "setting": "SSAO; doses 0.005 to 15 mg/kg", "result": "dose-dependently inhibits SSAO activity"}, {"measurement": "IC50", "setting": "recombinant hSSAO", "result": "19.4 ± 5.68", "unit": "nM"}]}]}
